Several values for one entry are separate records, joined by “and”; a condition that tells them apart may be missing. Equal entries are not always repeated.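 48-hour exposure; five concentrations; linearly interpolated endpoints. Here, GI50 denotes the concentration required for 50% inhibition of growth. Definition used: TGI = concentration required for complete inhibition of growth.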 Where a SMILES comes first, the peptide text is derived from it.
How the values were obtained:
Experiment in all cases: DTP human tumour cell line panel, 48 h
HOP-92 NSCLC = tested on: HOP-92 NSCLC
NCI-H226 lung = tested on: NCI-H226 lung
786-0 renal = tested on: 786-0 renal
SF-295 CNS = tested on: SF-295 CNS
ACHN renal = tested on: ACHN renal
HT29 colon = tested on: HT29 colon
HL-60(TB) leukemia = tested on: HL-60(TB) leukemia
SK-MEL-5 melanoma = tested on: SK-MEL-5 melanoma
SK-MEL-28 melanoma = tested on: SK-MEL-28 melanoma
MDA-MB-435 = tested on: MDA-MB-435

Row | SMILES | TGI (HOP-92 NSCLC) | TGI (NCI-H226 lung) | TGI (786-0 renal) | TGI (SF-295 CNS) | TGI (ACHN renal) | TGI (HT29 colon) | TGI (HL-60(TB) leukemia) | TGI (SK-MEL-5 melanoma) | TGI (SK-MEL-28 melanoma) | GI50 (786-0 renal) | GI50 (SF-295 CNS) | GI50 (HT29 colon) | TGI (MDA-MB-435) | GI50 (HL-60(TB) leukemia) | GI50 (NCI-H226 lung) | GI50 (ACHN renal) | GI50 (SK-MEL-28 melanoma) | GI50 (MDA-MB-435) | GI50 (SK-MEL-5 melanoma) | GI50 (HOP-92 NSCLC)
1 | COc1ccc(C(c2ccc(C(C)C)cc(=O)c2O)c2ccc3cccnc3c2O)cc1 (stereo not given) | 0.898 µM | 4.38 µM | 5.61 µM | 7.43 µM | 7.53 µM | 20.2 µM | 6.23 µM | 2.41 µM | – | – | – | – | – | – | – | – | – | – | – | –
2 | COC(=O)C1(C(=O)OC)CC2c3c(c4ccccc4n3C)CC(C1=O)N2Cc1ccccc1 (stereo not given) | > 100 µM | > 100 µM | > 100 µM | > 100 µM | > 100 µM | > 100 µM | > 100 µM | > 100 µM | > 100 µM | – | – | – | – | – | – | – | – | – | – | –
3 | CC(C)CC(NC(=O)C(CC(C)C)NC(=O)C(Cc1cnc[nH]1)NC(=O)C(C)NC(=O)C(NC(=O)C(C)NC(=O)C(Cc1c[nH]c2ccccc12)NC(=O)C(CCC(=O)O)NC(=O)C(N)Cc1ccccc1)C(C)C)C(N)=O (stereo not given) (H-FEWAVAHLL-NH2; configuration not given here) | – | > 12.5 µM | > 100 µM | > 100 µM | > 100 µM | > 100 µM | > 100 µM | > 12.5 µM | > 100 µM | > 100 µM | > 100000 nM | > 100000 nM | > 12.5 µM | > 100000 nM | – | – | – | – | – | –
4 | ClC1CCC2OOC1O2 (stereo not given) | > 100 µM | > 100 µM | > 100 µM | > 100 µM | > 100 µM | > 100 µM | > 100 µM | > 100 µM | > 100 µM | – | – | – | – | – | – | – | – | – | – | –
5 | Cc1oc2c(C)c(O)c3c(c2c1C1(C)OCCO1)C(=O)C=C(Cl)C3=O | > 100 µM | > 100 µM | > 100 µM | > 100 µM | > 100 µM | > 100 µM | > 100 µM | > 100 µM | > 100 µM | – | – | – | – | – | – | – | – | – | – | –
6 | CC(=O)NC(CCCCNC(=O)N(CCCl)N=O)C(=O)NCc1ccccc1 (stereo not given) | > 100 µM | > 100 µM | > 100 µM | > 100 µM | > 100 µM | > 100 µM | > 100 µM | – | > 100 µM | – | – | – | – | – | – | – | – | – | – | –
7 | COc1cc2nc(Sc3c([N+](=O)[O-])ncn3C)[nH]c2cc1OC | 45 µM | > 100 µM | > 100 µM | > 100 µM | > 100 µM | > 100 µM | – | 63.6 µM | > 100 µM | – | – | – | – | – | – | – | – | – | – | –
8 | O=C1OCc2c1cc(F)cc2[N+](=O)[O-] | – | > 100 µM | > 100 µM | > 100 µM | > 100 µM | > 100 µM | > 100 µM | > 100 µM | > 100 µM | > 100 µM | > 100000 nM | > 100000 nM | > 100 µM | > 100000 nM | > 100 µM | > 100 µM | > 100 µM | > 100 µM | > 100 µM | –
9 | COc1cc2ccc3c4c(OC)cc(OC)c(OC)c4c(=O)n(C)c3c2cc1OC | 16.7 µM and 40.4 µM | > 42 µM | – | 2.89 µM and > 22.4 µM | 16.7 µM and > 44.7 µM | 4.77 µM | 1.16 µM | 16.7 µM and 35.1 µM | 16.7 µM and > 48.5 µM | 1.78 µM | 809 nM | 1750 nM | – | 351 nM | – | 4.88 µM | 8.01 µM | – | 4.11 µM | 1550 nM
10 | C[C@@H](CO)OCOCc1ccccc1 | > 100 µM | – | > 100 µM | > 100 µM | – | > 100 µM | > 100 µM | > 100 µM | > 100 µM | – | – | – | – | – | – | – | – | – | – | –
11 | COc1ccc(NC(=O)C(=O)C2CNC(=O)NC2=O)c(OC)c1 (stereo not given) | > 100 µM | > 100 µM | > 100 µM | > 100 µM | > 100 µM | > 100 µM | > 100 µM | > 100 µM | > 100 µM | – | – | – | – | – | – | – | – | – | – | –
12 | CCOc1ccccc1N=Nc1c(-c2ccccc2)nn(C(=O)CC(=O)Nc2cccc(Cl)c2)c1-c1ccccc1 | > 100 µM | > 100 µM | > 100 µM | > 100 µM | > 100 µM | > 100 µM | > 100 µM | > 100 µM | > 100 µM | – | – | – | – | – | – | – | – | – | – | –
13 | CC(C)NCC(O)COC(=O)c1cccs1 (stereo not given) | > 100 µM | – | > 100 µM | – | > 100 µM | > 100 µM | > 100 µM | > 100 µM | > 100 µM | – | – | – | – | – | – | – | – | – | – | –
14 | O=C(Nc1ccccc1)Nc1cccc(-n2cc(-c3ccncc3)c(-c3ccc(O)c(Cl)c3)n2)c1 | – | > 100 µM | 11.7 µM | 4.73 µM | 34.7 µM | 4.45 µM | 5.36 µM | 3.35 µM | 18.6 µM | 3.24 µM | 2100 nM | 2270 nM | 17 µM | 2320 nM | 7.35 µM | 2.95 µM | 3.27 µM | 3.03 µM | 1.78 µM | –
15 | Cc1ccccc1NC(=O)C(=O)C(c1cnc2ccc([N+](=O)[O-])cc2n1)[N+](=O)[O-] (stereo not given) | > 100 µM | > 100 µM | > 100 µM | > 100 µM | > 100 µM | > 100 µM | > 100 µM | > 100 µM | > 100 µM | – | – | – | – | – | – | – | – | – | – | –
16 | COC(=O)C1=CN=C(C(=O)OC)NN1 | > 100 µM | > 100 µM | > 100 µM | > 100 µM | > 100 µM | > 100 µM | > 100 µM | > 100 µM | > 100 µM | – | – | – | – | – | – | – | – | – | – | –
17 | CCc1ccccc1NC(=O)CCc1n[nH]c(=S)o1 | > 100 µM | > 100 µM | > 100 µM | > 100 µM | > 100 µM | > 100 µM | > 100 µM | > 100 µM | > 100 µM | – | – | – | – | – | – | – | – | – | – | –
18 | Cc1c(C(=O)CC(=O)C(=O)Nc2ccc(Cl)c(Cl)c2)[n+](=O)c2ccccc2n1[O-] | > 100 µM | > 100 µM | 69 µM | > 100 µM | > 100 µM | 74.5 µM | 47.4 µM | 43.9 µM | > 100 µM | – | – | – | – | – | – | – | – | – | – | –
19 | Cn1cccc1-c1cc(-c2cccs2)[nH]c(=O)c1C#N | – | > 100 µM | > 100 µM | > 100 µM | > 100 µM | > 100 µM | – | > 100 µM | > 100 µM | > 100 µM | > 100000 nM | > 100000 nM | > 100 µM | – | > 100 µM | > 100 µM | > 100 µM | > 100 µM | > 100 µM | –

Reference: PubChem BioAssay (NCI)
